Literature values, collected in patent publication US20200360276A1 (Aerovate Therapeutics, Inc., priority 2019, published 2020).

Tests used:
[1] = relative to imatinib parent compound
[2] = relative to imatinib parent compound; remark: listed apart in the source
[3] = test system: platelet-derived growth factor receptor (PDGFR)
[4] = aqueous solution, dependence on pH

solubility [4]: increases as the pH drops
Structure (SMILES): Cc1ccc(NC(=O)c2ccc(CN3CCNCC3)cc2)cc1Nc1nccc(-c2cccnc2)n1 [N-desmethyl imatinib]
potency [1]: same potency as the imatinib parent compound
half-life [2]: increased half-life relative to the parent imatinib compound
inhibition of PDGFR [3]: potent inhibitor
